Results: patent publication EP2958918B1, “DIHYDROPTERIDINONES II” (Boehringer Ingelheim International GmbH, priority 2013, dated 2014)

Columns and labels:
Aβ total = Aβ total cellular assay: inhibition of Aβ total production in H4 neuroglioma cells stably expressing human APP695, electrochemiluminescence (Meso Scale Discovery) on supernatant; used for the ratio Aβ total IC50 / Aβ42 IC50; format: cell-based; settings: higher ratio = more specific inhibition of Aβ42
Method: (§1) Cells were plated out to near confluency. The compounds to be tested were received as 10 mM stocks in 100% DMSO. A dilution series was initially generated in 100% DMSO and then diluted 200-fold in cell culture media such that the tested concentration range was 30 µM to 0.1 nM and the final DMSO concentration was 0.5%. The diluted compounds were incubated with the cells for 22 hours in an incubator at 37°C and 5% CO2. Aβ42 as well as Aβ total levels were then measured post-incubation from the supernatant of the cells. Aβ42 levels were determined using a specific electrochemiluminescence assay provided by Meso Scale Discovery (Catalog # L21CA-1) according to the manufacturer's protocol. Aβ total levels were likewise determined using a specific electrochemiluminescence assay provided by Meso Scale Discovery (Catalog # L21ZA-1) according to the manufacturer's protocol.
(§2) In order to absolutely define the described compounds as modulators of y-Secretase as opposed to simply inhibitors of γ-Secretase, measurements of not only Aβ42 but also Aβ total are performed.

Aβ42 = Aβ42 cellular assay: inhibition of Aβ42 production in H4 neuroglioma cells stably expressing human APP695, electrochemiluminescence (Meso Scale Discovery) on supernatant; format: cell-based; settings: 22 hours incubation, tested range 30 µM to 0.1 nM
Method: as §1, §2

Row | Structure (SMILES) | IC50 (Aβ42) | Ratio Aß(total)/Aß42 (Aβ total)
1 | COc1cc(Nc2ncc3c(n2)N(C)C2(CC2)C(=O)N3c2ccc(F)cc2)ccc1-n1cnc(C)c1 [Example 46] | 98 nM | > 306
2 | COc1cc(Nc2ncc3c(n2)N(C)C2(CC2)C(=O)N3C2COC2)ccc1-n1cnc(C)c1 [Example 47] | 191 nM | 98
3 | COc1cc(Nc2ncc3c(n2)N(C)C2(CCOC2)C(=O)N3c2ccc(C(F)(F)F)cn2)ccc1-n1cnc(C)c1 (centres unmarked) [Example 48] | 389 nM | 22
4 | COc1cc(Nc2ncc3c(n2)N(C)C2(CC2)C(=O)N3CC(F)(F)F)cnc1-n1cnc(C)c1 [Example 50] | 204 nM | > 147
5 | COc1cc(Nc2ncc3c(n2)N(C)C2(CC2)C(=O)N3CC(F)F)ccc1-n1cnc(C)c1 [Example 52] | 110 nM | 61

These reach a lower IC50 (Aβ42). Values come first.

Row | IC50 (Aβ42) | Structure (SMILES) | Ratio Aß(total)/Aß42 (Aβ total)
6 | 95 nM | COc1cc(Nc2ncc3c(n2)N(C)C2(CC4CCC2C4)C(=O)N3C)cnc1-n1cnc(C)c1 (centres unmarked) [Example 49] | 69
7 | 76 nM | COc1cc(Nc2nc(CC(F)(F)F)c3c(n2)N(C)C2(CC2)C(=O)N3C)ccc1-n1cnc(C)c1 [Example 55] | 103
8 | 59 nM | COc1cc(Nc2ncc3c(n2)N(C)C2(CC2)C(=O)N3CC(F)(F)F)ccc1-n1ccnc1C [Example 51] | 126
9 | 40 nM | COc1cc(Nc2ncc3c(n2)N(C)C2(CCCC2)C(=O)N3C)ccc1-n1cnc(C)c1 [Example 53] | 132
10 | 22 nM | COc1cc(Nc2ncc3c(n2)N(C)C2(CCCC2)C(=O)N3CC(F)(F)F)ccc1-n1cnc(C)c1 [Example 54] | 116
